Literature values as cited in patent publication US10238717B2 (Latitude Pharmaceuticals, Inc., priority 2014, dated 2019).
Read-outs that look alike come from different tables or passages of the source.

Compound	Concentration of sugar in water at saturation (25° C.)	Concentration of sugar in water at saturation (20° C.)	other results
OC[C@H]1O[C@@H](O[C@H]2[C@H](O)[C@@H](O)C(O)O[C@@H]2CO)[C@H](O)[C@@H](O)[C@H]1O (some centres unmarked) [lactose]	about 21.6 % w/v	–	–
OC[C@@H](O)[C@@H](O)[C@H](O)[C@H](O)CO [mannitol]	–	–	Concentration of sugar in water at saturation (temperature not given): about 25 % w/v
OC[C@@H](O)[C@@H](O)[C@H](O)[C@@H](O)CO [sorbitol]	–	about 22 % w/v	–
OC[C@H]1O[C@@](CO)(O[C@H]2O[C@H](CO)[C@@H](O)[C@H](O)[C@H]2O)[C@@H](O)[C@@H]1O [sucrose]	about 200 % w/v	–	–
OC[C@H]1O[C@H](O[C@H]2O[C@H](CO)[C@@H](O)[C@H](O)[C@H]2O)[C@H](O)[C@@H](O)[C@@H]1O [trehalose]	–	about 68.9 % w/v	–
